Laboratory results published in patent publication US9328138B2 (priority 2011, dated 2016).

Legend:
[1] = target: HCV NS3 protease genotype 3a (3A-1) (Hepatitis C virus genotype 3a, UniProt Q81258); experiment: HCV NS3 protease time-resolved fluorescence (TRF) assay, genotype 3a; format: biochemical; conditions: Ki 3a
How it was run: (§1)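 Time-resolved fluorescence, ex 340/em 615 nm, 400 μs delay; IC50 by four-parameter fit. Enzyme preincubated with compound 10 min, then TRF substrate 25 nM final added and reaction run 6 h at RT. Buffer HEPES pH 7.5 with NaCl, glycerol, Triton X-100, DTT, PEG 8000.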

[2] = target: T1, HCV genotype 1b (BK) NS3 modified enzyme with a R155K mutation (Hepatitis C virus genotype 1b, UniProt P26663, R1181K); experiment: HCV NS3 protease time-resolved fluorescence (TRF) assay, genotype 1b R155K; format: biochemical; conditions: Ki 1b R155K
T1 construct: HCV genotype 1b (BK) NS3 modified enzyme
How it was run: as §1

[3] = genotype 1b (BK) NS3 R155K, single value

C=C[C@@H]1C[C@]1(NC(=O)[C@@H]1C[C@@H]2CN1C(=O)[C@H](C(C)(C)C)NC(=O)O[C@@H]1C[C@H]1CCCCCc1c(nc3ccccc3c1OC1CCN(C3CC3)CC1)O2)C(=O)NS(=O)(=O)C1(C)CC1 [Example 220, (1aR,5S,8S,10R,22aR)-5-tert-butyl-17-[(1-cyclopropylpiperidin-4-yl)oxy]-N-[(1R,2S)-2-ethenyl-1-{[(1-methylcyclopropyl)sulfonyl]carbamoyl}cyclopropyl]-3,6-dioxo-1,1a,3,4,5,6,9,10,18,19,20,21,22,22a-tetradecahydro-8H-7,10-methanocyclopropa[18,19][1,10,3,6] dioxadiazacyclononadecino[11,12-b]quinoline-8-carboxamide]
Ki [1]: 3.9 nM
Ki [2, 3]: 0.29 nM

C=C[C@@H]1C[C@]1(NC(=O)[C@@H]1C[C@@H]2CN1C(=O)[C@H](C1CCCC1)NC(=O)O[C@H]1C[C@@H]1CC/C=C/Cc1c(nc3ccccc3c1OC)O2)C(=O)NS(=O)(=O)C1CC1 [Example 12, (1aS,5S,8S,10R,19E,22aS)-5-cyclo pentyl-N-{(1R,2S)-1-[(cyclopropylsulfonyl)carbamoyl]-2-ethenylcyclopropyl}-17-methoxy-3,6-dioxo-1,1a,3,4,5,6,9,10,18,21,22,22a-dodecahydro-8H-7,10-methanocyclopropa[18,19][1,10,3,6] dioxadiazacyclononadecino[11,12-&]quinoline-8-carboxamide]
Ki [1]: 340 nM
Ki [2, 3]: 3.3 nM

C=C[C@@H]1C[C@]1(NC(=O)[C@@H]1C[C@@H]2CN1C(=O)[C@H](C(C)(C)C)NC(=O)O[C@@H]1C[C@H]1CCCCCc1c(nc3ccccc3c1OCCCN1CC3(COC3)C1)O2)C(=O)NS(=O)(=O)C1(C)CC1 [Example 194]
Ki [1]: 0.38 nM
Ki [2, 3]: 0.032 nM

CC1(S(=O)(=O)NC(=O)[C@@]23C[C@H]2/C=C\CCCCC[C@@H]2NC(=O)O[C@@H]4C[C@H]4CCC/C=C/c4c(nc5ccccc5c4OCCN4CCCCC4)O[C@@H]4C[C@@H](C(=O)N3)N(C4)C2=O)CC1 [Example 296, (1aR,5S,11Z,12aS,13aR,16S,19R,27E,31aR)—N-[(1-methylcyclopropyl)sulfonyl]-3,15,33-trioxo-26-[2-(piperidin-1-yl)ethoxy]-1,1a,3,4,5,6,7,8,9,10,12a,13,15,16,18,19,29,30,31,31a-icosahydro-5,17:16,19-dimethanodicyclopropa[12,13:28,29][1,20,3,14,17]dioxatriazacyclononacosino[21,22-b]quinoline-13a(14H)-carboxamide]
Ki [1]: 6 nM
Ki [2, 3]: 0.27 nM

C=C[C@@H]1C[C@]1(NC(=O)[C@@H]1C[C@@H]2CN1C(=O)[C@H](C1CCCC1)NC(=O)O[C@@H]1CCC[C@H]1CC/C=C/Cc1c(nc3ccccc3c1OCCN1CCOC1=O)O2)C(=O)NS(=O)(=O)C1CC1 [Example 42, (3aR,7S,10S,12R,21E,24aS)-7-cyclopentyl-N-{(1R,2S)-1-[(cyclopropylsulfonyl)carbamoyl]-2-ethenylcyclopropyl}-5,8-dioxo-19-[2-(2-oxo-1,3-oxazolidin-3-yl)ethoxy]-1,2,3,3a,5,6,7,8,11,12,20,23,24,24a-tetradecahydro-10H-9,12-methanocyclopenta[18,19][1,10,3,6]dioxadiazacyclononadecino[11,12-b]quinoline-10-carboxamide]
Ki [1]: 1.5 nM
Ki [2, 3]: 0.073 nM

C=C[C@@H]1C[C@]1(NC(=O)[C@@H]1C[C@@H]2CN1C(=O)[C@H](C1CCCC1)NC(=O)O[C@@H]1CCC[C@H]1CC/C=C/Cc1c(nc3ccccc3c1OCCc1ccccn1)O2)C(=O)NS(=O)(=O)C1CC1 [Example 43, (3aR,7S,10S,12R,21E,24aS)-7-cyclopentyl-N-{(1R,2S)-1-[(cyclopropylsulfonyl)carbamoyl]-2-ethenylcyclopropyl}-5,8-dioxo-19-[2-(pyridin-2-yl)ethoxy]-1,2,3,3a, 5,6,7,8,11,12,20,23,24,24a-tetradecahydro-10H-9,12-methanocyclopenta [18,19][1,10,3,6]dioxadiazacyclonona decino[11,12-b]quinoline-10-carboxamide]
Ki [1]: 9.9 nM
Ki [2, 3]: 0.28 nM

C=C[C@@H]1C[C@]1(NC(=O)[C@@H]1C[C@@H]2CN1C(=O)[C@H](C(C)(C)C)NC(=O)O[C@@H]1C[C@H]1CCCCCc1c(nc3ccccc3c1OC1CC3CCC(C1)N3CC(F)(F)F)O2)C(=O)NS(=O)(=O)C1(C)CC1 (stereo partly drawn) [Example 275, potassium {[(1R,2S)-1-({[(1aR,5S,8S,10R,22aR)-5-tert-butyl-3,6-dioxo-17-{[8-(2,2,2-trifluoroethyl)-8-azabicyclo[3.2.1]oct-3-yl]oxy}-1,1a,3,4,5,6,9,10,18,19,20,21,22,22a-tetradecahydro-8H-7,10-methanocyclopropa[18,19][1,10,3,6]dioxadiazacyclononadecino[11,12-b]quinolin-8-yl]carbonyl}amino)-2-ethenylcyclopropyl]carbonyl}[(1-methylcyclopropyl)sulfonyl]azanide]
Ki [1]: 16 nM
Ki ([2]; first of two values printed in the cell (not explained)): 0.11 nM
Ki ([2]; second of two values printed in the cell (not explained)): 1.15 nM

C=C[C@@H]1C[C@]1(NC(=O)[C@@H]1C[C@@H]2CN1C(=O)[C@H](C(C)(C)C)NC(=O)O[C@@H]1C[C@H]1CCCCCc1c(nc3ccccc3c1OCCCN1CCCCC1c1nc3cc(F)ccc3[nH]1)O2)C(=O)NS(=O)(=O)C1(C)CC1 (stereo partly drawn) [Example 203, (1aR,5S,8S,10R,22aR)-5-tert-butyl-N-[(1R,2S)-2-ethenyl-1-{[(1-methylcyclopropyl)sulfonyl]carbamoyl}cyclopropyl]-17-{3-[2-(5-fluoro-1H-benzimidazol-2-yl)piperidin-1-yl]propoxy}-3,6-dioxo-1,1a,3,4,5,6,9,10,18,19,20, 21,22,22a-tetradecahydro-8H-7,10-methanocyclopropa[18,19][1,10,3,6] dioxadiazacyclononadecino[11,12-b] quinoline-8-carboxamide]
Ki [1]: 4.9 nM
Ki [2, 3]: 0.13 nM

C=C[C@@H]1C[C@]1(NC(=O)[C@@H]1C[C@@H]2CN1C(=O)[C@H](C1CCCC1)NC(=O)O[C@@H]1CCC[C@H]1CC/C=C/Cc1c(nc3ccccc3c1O)O2)C(=O)NS(=O)(=O)C1(C)CC1 [Example 23, (3aR,7S,10S,12R,21E,24aS)-7-cyclopentyl-N-[(1R,2S)-2-ethenyl-1-{[(1-methylcyclopropyl)sulfonyl]carbamoyl}cyclopropyl]-19-hydroxy-5,8-dioxo-1,2,3,3a,5,6,7,8,11,12,20,23,24,24a-tetradecahydro-10H-9,12-methanocyclopenta[18,19][1,10,3,6]dioxadiazacyclononadecino[11,12-b]quinoline-10-carboxamide]
Ki [1]: 0.64 nM
Ki [2, 3]: 0.11 nM

C=CC1C[C@]1(NC(=O)[C@@H]1C[C@@H]2CN1C(=O)[C@H](C1CCCC1)NC(=O)O[C@@H]1CCC[C@H]1CC/C=C/Cc1c(nc3ccccc3c1OCCCN1CCC1)O2)C(=O)NS(=O)(=O)C1(C)CC1 (stereo partly drawn) [Example 85, (3aR,7S,10S,12R,21E,24aS)-19-[3-(azetidin-1-yl)propoxy]-7-cyclopentyl-N-[(1R,2S)-2-ethenyl-1-{[(1-methylcyclopropyl)sulfonyl]carbamoyl}cyclopropyl]-5,8-dioxo-1,2,3,3a,5,6,7,8,11,12,20,23,24,24a-tetra deca hydro-10H-9,12-methanocyclopenta [18,19][1,10,3,6]dioxa-diazacyclononadecino[11,12-b] quinoline-10-carboxamide]
Ki [1]: 0.56 nM
Ki [2, 3]: 0.11 nM
